The assay has as its target T1, USP28 (USP28-5(1-1077)-TEV-6*His; LifeSensors) (Homo sapiens, UniProt Q96RU2).
T1 construct: construct USP28 (USP28-5(1-1077)-TEV-6*His; LifeSensors); TEV cleavage site (C); 6xHis (C); purchased LifeSensors
T1 sequence (Q96RU2 1-1077): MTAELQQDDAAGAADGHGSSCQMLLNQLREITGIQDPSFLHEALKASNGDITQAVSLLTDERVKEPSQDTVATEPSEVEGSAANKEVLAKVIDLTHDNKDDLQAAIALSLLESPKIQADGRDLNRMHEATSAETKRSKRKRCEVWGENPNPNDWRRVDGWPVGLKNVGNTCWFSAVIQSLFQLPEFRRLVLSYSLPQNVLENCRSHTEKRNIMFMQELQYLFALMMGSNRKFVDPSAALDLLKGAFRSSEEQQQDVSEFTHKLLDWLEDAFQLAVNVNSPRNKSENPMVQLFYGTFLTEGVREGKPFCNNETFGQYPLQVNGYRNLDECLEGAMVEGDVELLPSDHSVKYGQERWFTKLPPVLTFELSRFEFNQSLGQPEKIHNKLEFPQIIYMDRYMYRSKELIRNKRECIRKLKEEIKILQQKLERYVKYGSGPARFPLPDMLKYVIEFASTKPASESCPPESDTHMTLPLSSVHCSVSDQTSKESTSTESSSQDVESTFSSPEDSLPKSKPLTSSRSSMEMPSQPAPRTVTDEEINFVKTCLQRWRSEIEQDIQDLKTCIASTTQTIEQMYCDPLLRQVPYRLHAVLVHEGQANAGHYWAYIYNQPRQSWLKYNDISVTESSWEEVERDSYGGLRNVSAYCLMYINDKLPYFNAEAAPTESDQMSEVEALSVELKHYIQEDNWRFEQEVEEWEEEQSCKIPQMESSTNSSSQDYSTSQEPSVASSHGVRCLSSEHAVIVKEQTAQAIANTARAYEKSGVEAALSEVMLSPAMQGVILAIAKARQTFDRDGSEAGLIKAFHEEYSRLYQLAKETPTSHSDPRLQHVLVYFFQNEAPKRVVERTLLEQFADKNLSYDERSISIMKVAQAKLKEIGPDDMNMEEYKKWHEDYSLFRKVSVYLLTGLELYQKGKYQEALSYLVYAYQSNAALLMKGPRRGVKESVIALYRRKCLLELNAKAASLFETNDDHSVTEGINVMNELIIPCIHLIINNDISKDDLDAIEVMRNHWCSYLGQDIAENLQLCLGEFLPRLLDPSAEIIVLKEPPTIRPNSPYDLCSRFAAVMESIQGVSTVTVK
As to the kind of experiment: Ubiquitin-Rhodamine 110 Assay for USP28 Activity, Example A-1(b). The conditions noted are these: Ubiquitin-Rhodamine 110 assay, Example A-1(b). The format is biochemical. In outline:
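Single-point screening used 10 μM compound with 90 min room-temperature incubation; follow-up dose-responses (25 μM top, 3-fold) used 75 pM USP28 1-1077 construct, 30 min compound preincubation, 25 nM Ub-Rh110, 20 min reaction, citric acid quench. Rh110 fluorescence normalised to no-enzyme and DMSO controls; IC50 from 4-parameter logistic fit.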

As to `Cc1ccc2c(N)c(C(=O)N[C@H]3COc4cc(N5CCNCC5)cc(F)c4C3)oc2n1` [Example 169, 3-amino-N-[(3R)-5-fluoro-7-(piperazin-1-yl)-3,4-dihydro-2H-1-benzopyran-3-yl]-6-methylfuro[2,3-b]pyridine-2-carboxamide], the “USP28 A-1(b) IC50 range” value is listed as “+ (>2 μM)”.
